This is an account of results in PMC6877910, “Astrocyte-Targeted Transporter-Utilizing Derivatives of Ferulic Acid Can Have Multifunctional Effects Ameliorating Inflammation and Oxidative Stress in the Brain” (Oxidative Medicine and Cellular Longevity, 2019).

Where two headings read alike, the source gives them in different places.

In one series the test system is NF-κB. Kind of series: Total amount of NF-κB p65 (ELISA) in cells. It counts as cell-based, mouse. Conditions: 100 μM; 24-96 h incubation. The procedure:
Enzyme-Linked Immunosorbent Assay (ELISA) kits were used (mTOR SimpleStep ELISA Kit and NFκB p65 Total SimpeStep ELISA Kit, Abcam, Cambridge, UK) to quantify mammalian (or mechanistic) target of rapamycin (mTOR) and transcription factor NF-κB amounts, respectively. […] The control wells were treated with the solvent only (0.5% DMSO). Cells were solubilized using the provided extraction buffer with the kit, incubated on ice for 20 minutes and centrifuged at 18 000 × g for 20 min at 4°C. The supernatants were stored at -80°C till the day of the analysis. Standards and samples were then analyzed following the manufacturer's protocol (ELISA sandwich method) and by reading the absorbance with the EnVision plate reader (EnVision, PerkinElmer, Inc., Waltham, MA, USA) at 450 nm. The results were analyzed as pmol of formed mTOR or NF-κB per mL.

In series [1] the test system is LPS-induced lipid peroxidation in primary astrocytes. Briefly: LPS-induced lipid peroxidation (malondialdehyde formation) in primary astrocytes. The format is cell-based, mouse. The conditions noted are these: 50 μM compound with 0.1 μg/mL LPS, 24 h. The procedure:
Primary astrocytes were seeded at the density of 2 × 10^5 cells/well onto collagen-coated 6-well plates. The cells were used for the experiments 2 days after seeding, and first, they were treated with 0.1 μg/mL lipopolysaccharide (LPS) in prewarmed HBSS buffer (250 μL) at 37°C for 24 h. The control cells were treated with prewarmed HBSS buffer only. The ability of compound to inhibit the oxidative stress was evaluated by adding FA (50 μM) or its derivatives 1-3 in prewarmed HBSS buffer (250 μL) together with LPS and incubating the cells at 37°C for 24 h. Tocopherol (vitamin E) was used as a positive control. […] The mixtures were then centrifuged at 10 000 × g for 10 min, and 50 μL of the supernatant was analyzed on a 96-well plate, each experiment as three technical replicates from three biological replicates. The fluorescence was read by the EnVision plate reader (EnVision, PerkinElmer, Inc., Waltham, MA, USA) at λex 532 nm and λem 553 nm. The amount of produced malondialdehyde (MDA) in each experiment was quantified from the standard curve; various amounts (1-800 μM) of MDA and thiobarbituric acid in water were incubated in a thermoshaker at 95°C for 1 h and analyzed simultaneously as duplicates with each studied batch. […] The results were analyzed as μmol of formed MDA per mg protein.

A short description of series [2]: Intracellular unbound drug concentration ratio (Kp,uu) in astrocytes. It counts as in vitro ADME. Conditions: C57BL/6J, mouse, read-out: Kp,uu (unbound intracellular : extracellular ratio). The procedure: The unbound fraction of FA and its derivatives 1-2 was determined at 10 μM in cell homogenate by using a Rapid Equilibrium Dialysis (RED) device (Thermo Fisher Scientific, Inc., Waltham, MA, USA). Briefly, the cell homogenate was prepared from astrocyte cell suspension (10 × 10^6 cells/mL) in HBSS with a SoniPerp 150 Plus disintegrator (MSE Ltd., London, UK) for 2 s × 3. 100 μL of cell homogenate spiked with the studied compound was added to the reaction chamber, and 350 μL of HBSS buffer was added to the buffer chamber of the RED plate. The dialysis plate was incubated at 37°C for 4 h with shaking. […]
The drug concentration ratio in astrocytes (Kp) was determined at 0.01-1.0 μM concentrations by comparing the cellular uptake from the cell lysates (0.1 M NaOH) to the concentration detected from the surrounding buffer (HBSS) collected before cell lysing as described by Mateus et al.: (3) Kp=Acell/Vcell/Cmedium, where Acell is the amount of compound in the cell lysate (nmol), Vcell is the astrocyte cell volume (0.05810^−15 L/cell) for 10 × 10^4 cells/well, and Cmedium is the compound concentration in the surrounding buffer. The unbound drug concentration ratio (Kp,uu) was then calculated by multiplying the drug concentration ratio (Kp) by unbound drug fraction (fu,cell) as described by Mateus et al.: (4) Kp,uu=Kp×fu,cell.

Series [3] can be described thus: Bioconversion in mouse brain S9 subcellular fraction. The format is in vitro ADME.
For series [4] the following is noted: cited from earlier work.
The conditions of series [5]: 5 h incubation in vitro; previous study; cited from earlier work.
Series [6] has as its system peroxidase activity of cyclooxygenases (COX). Briefly: Peroxidase activity of cyclooxygenases in cell lysates (fluorometric kit). The format is biochemical. Conditions: 100 μM; 30 min; assay does not differentiate COX from LOX. The procedure:
A coupled oxidation-reduction fluorometric assay was used to assess the inhibitory effect of compounds (100 μM) together with positive controls on the peroxidase activity of cyclooxygenases (COX) (ab204699 Cyclooxygenase Activity Assay Kit, Abcam, Cambridge, UK). The method has been done and validated according to the manufacturer's protocol. Briefly, studied compounds (100 μM) and the reaction mixture were incubated with the cell lysates at room temperature and the reaction was initiated by adding arachidonic acid/NaOH solution. The fluorescence was read in a kinetic mode after every 15 seconds for 30 minutes by the EnVision plate reader (EnVision, PerkinElmer, Inc., Waltham, MA, USA) at λex 535 nm and λem 587 nm.

For the compound `COc1cc(C=CC(=O)Nc2cccc(CC(N)C(=O)O)c2)ccc1O` (centres unmarked) [FA-derivative 2], the “Effect on total NF-κB levels” value with NF-κB is “did not exert any effects”. Also, the “MDA levels lower than in the control incubation” value in series [1] was “approximately 12%”. Also, the Kp uu in series [2] (throughout the studied concentrations (0.01-1.0 μM)) was in the range of 0.83 to 1.74.
As to `COc1cc(C=CC(=O)Oc2cccc(CC(N)C(=O)O)c2)ccc1O` (centres unmarked) [FA-derivative 3], in series [3], the “Bioconversion in the presence of donepezil” value was “no bioconversion at all was observed” and the half-life is ~3.58 h. In addition, in series [4] (in vitro human data), the “Bioconversion in human plasma” value was “rather insignificant” and the “Human hepatic intrinsic clearance, times slower than in mouse” value is recorded as 10 times. Besides, the “Stability in human plasma and liver S9 subcellular fraction, times more stable (than in mouse)” value in series [4] (previous study) is recorded as 10 times.
In the case of `COc1cc(C=CC(=O)NCc2cccc(CC(N)C(=O)O)c2)ccc1O` (centres unmarked) [FA-derivative 1], the “FA released / stability in mouse brain S9 subcellular fraction” value in series [5] is recorded as “remained intact”. The Kp uu in series [2] (lower concentrations (<0.1 μM)) is 0.25 to 2.14.
Take `COc1cc(/C=C/C(=O)O)ccc1O` [FA, trans-4-hydroxy-3-methoxycinnamic acid, reference compound]: the “Inhibition of peroxidase activity of COX enzymes” value in series [6] is recorded as “inhibited the cellular peroxidase activity of COX enzymes”.
